Assay results reported in patent US10550171B2, “Immunomodulatory peptides and methods of use thereof” (THE GOVERNORS OF THE UNIVERSITY OF ALBERTA, priority 2012, dated 2020).

Legend:
CMV (Towne strain) = test: CMV replication plaque assay in HFF-1 cells; type: cell-based, cytomegalovirus (CMV); conditions: HFF-1 cells pre-treated 2 h with peptide 10 μM; for inhibitory effect on CMV replication (viral growth curves, plaque assay): CMV Towne MOI 0.03, day 4 and day 6
Description: The data are depicted in FIG. 1. […] HFF-1 cells were pre-treated for 2 h with peptides (10 μM), then washed and infected with CMV (Towne strain, MOI 0.03) and viral growth curves were generated.
Peptides PRT ([…]; SEQ ID NO:23). LKY (ASVTFNLFRLLTRDLKY; SEQ ID NO: 15), and LNC (ASVTFNLFRLLTRDLNC; SEQ ID NO: 16) were pre-incubated at a concentration of 10 μM with HFF-1 cells (ATCC HS97FS. SCRC1041, and CCD1112SK). The cells were washed, then challenged with IL-28B (100 ng/ml) for 30 minutes. Peptides REV ([…]; SEQ ID NO:24), FKG ([…]; SEQ ID NO:25), and APP ([…]; SEQ ID NO:26) were pre-incubated for 2 hours with IL-28B, then added to HFF1 for 30 minutes. Proteins were harvested and STAT2 phosphorylation was determined by Western blot analysis. The effect of the peptides on CMV replication in HFF-1 cells was also tested. HFF-1 cells were pre-treated for 2 hours with peptides (10 μM) or control. CMV replication was determined 4 days later using plaque assays. The data are depicted in FIGS. 19 and 20. In FIG. 19, the data are from Western blot experiments. HFF11 cells were pre-treated with individual peptides for 2 hours, then challenged with IL28B for 30 minutes. Results were normalized to STAT2 and β-tubulin baseline expression. In FIG. 20, the data are from plaque assays. HFF1 cells were pre-treated with individual peptides for 2 hours, then infected with CMV Towne strain (multiplicity of infection 0.03). Plaque forming units (PFU) at day 4 were determined.

[1] = molecular target: T1, binding of IL29 to IL-28R (Homo sapiens, UniProt Q8IU57); test: ELISA assay, effect of peptides on binding of IL29 to IL-28R; conditions: for inhibition of the binding of IL29 to IL-28R: increasing peptide concentrations
T1 sequence (Q8IU57 21-228 limits assumed): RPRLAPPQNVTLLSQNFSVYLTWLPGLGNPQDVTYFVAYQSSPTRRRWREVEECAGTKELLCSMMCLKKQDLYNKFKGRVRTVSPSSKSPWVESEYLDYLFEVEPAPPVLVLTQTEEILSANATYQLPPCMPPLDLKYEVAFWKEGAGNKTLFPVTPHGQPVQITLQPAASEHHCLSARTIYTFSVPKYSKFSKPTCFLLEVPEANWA

STAT2 phosphorylation = STAT2 phosphorylation in HFF-1 cells challenged with IL-28B, Western blot; type: cell-based, human; conditions: for reduction in STAT2-phosphorylation: HFF-1 cells pre-incubated with peptide 10 μM, washed, IL-28B 100 ng/ml 30 minutes, normalized to STAT2 and β-tubulin; for blocking of STAT-2 phosphorylation: peptide pre-incubated 2 hours with IL-28B, then added to HFF1 for 30 minutes
STAT1 phosphorylation = test: STAT-1 phosphorylation in THP1-derived macrophages, flow cytometry; type: cell-based; conditions: IL28B 100 ng/mL, peptide 1 at 10 μM for 90 min before IL28B, peptide 17 added together with IL28B
Description: The effect of peptide 1 and peptide 17 on STAT-1 phosphorylation in macrophages was tested using flow cytometry.
STAT1 phosphorylation is one of the earliest events that occur after the IFN receptor is activated. THP1 cells (a monocytic cell line) were stimulated for 3 days with phorbol-12-myristate-13-acetate (PMA) and then rested for another 5 days in standard cultivation methods (37° C. 5% CO2) with RPMI containing 10% fetal calf serum (FCS). After 3 days, the PMA was removed and fresh media added. This treatment induces maturation of THP1, such that the THP1 cells are induced to express macrophage markers (Daigneault et al. (2010) PLoSOne 5:e8668). Next, the cells were treated: (i) either for 90 min with peptide 1 at a concentration of 10 μM and then added IL28B at 100 ng/mL or (ii) peptide 17 was added directly together with IL28B. “Scramble p1” is a control peptide with the amino acid sequence of p1 scrambled. Scramble p17” is a control peptide with the amino acid sequence of p17 scrambled.

[2] = molecular target: T2, binding of IL28A to IL-28R (Homo sapiens, UniProt Q8IU57); test: ELISA assay, effect of peptides on binding of IL28A to IL-28R; conditions: increasing peptide concentrations
T2 sequence (Q8IU57 21-228 limits assumed): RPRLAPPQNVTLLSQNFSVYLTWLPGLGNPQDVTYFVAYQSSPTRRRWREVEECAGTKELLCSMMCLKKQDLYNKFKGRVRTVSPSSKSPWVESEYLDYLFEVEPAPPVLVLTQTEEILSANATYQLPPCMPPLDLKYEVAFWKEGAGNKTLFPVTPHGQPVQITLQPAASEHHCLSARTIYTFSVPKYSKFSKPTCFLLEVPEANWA

IL28R1 = molecular target: T3, IL28R1 (Homo sapiens, UniProt Q8IU57); test: Biacore assay, binding of interferon lambda ligands to IL28R1
T3 sequence (Q8IU57 21-520): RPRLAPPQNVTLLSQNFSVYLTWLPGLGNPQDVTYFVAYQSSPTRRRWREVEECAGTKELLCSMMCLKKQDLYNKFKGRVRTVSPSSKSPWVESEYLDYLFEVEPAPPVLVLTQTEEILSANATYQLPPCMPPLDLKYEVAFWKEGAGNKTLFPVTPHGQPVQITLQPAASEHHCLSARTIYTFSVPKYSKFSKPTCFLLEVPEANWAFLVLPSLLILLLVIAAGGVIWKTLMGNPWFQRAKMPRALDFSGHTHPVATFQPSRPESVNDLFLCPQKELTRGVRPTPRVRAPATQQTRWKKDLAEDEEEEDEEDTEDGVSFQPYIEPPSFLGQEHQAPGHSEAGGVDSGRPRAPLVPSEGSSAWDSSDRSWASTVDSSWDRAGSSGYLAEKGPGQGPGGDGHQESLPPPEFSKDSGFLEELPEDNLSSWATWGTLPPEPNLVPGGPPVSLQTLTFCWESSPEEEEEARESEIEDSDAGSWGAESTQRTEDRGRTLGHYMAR
From the text: FIG. 9 depicts binding affinity (KD values in PM) of ligands IL28A, IL28B, and IL29, and of peptides 1, 2, 6, 7, and 15-18, for IL28R1. […] In […], the KD values indicate differences between peptides.
FIG. 10 depicts the effect of peptides on binding of IL29 to IL-28R. Binding of IL29 was disrupted by addition of increasing peptide concentrations.

## ASVTFNLFRLLTRDLKY [Peptide 6]
CMV (Towne strain)
  inhibitory effect on CMV replication (viral growth curves, plaque assay): strong inhibitory effects
[1]
  inhibition of the binding of IL29 to IL-28R: highly potent
STAT2 phosphorylation
  reduction in STAT2-phosphorylation: 40%

## ASVTFNLFRLLTRDLNC [Peptide 7]
CMV (Towne strain); CMV Towne MOI 0.03, day 4 after infection
  lower CMV replication (plaque forming units): 2.5 log10
CMV (Towne strain)
  inhibitory effect on CMV replication (viral growth curves, plaque assay): strong inhibitory effects
STAT2 phosphorylation
  reduction in STAT2-phosphorylation: 34%

## ELASFKKARDALEESLKL [Peptide 1]
STAT1 phosphorylation
  STAT1 phosphorylation: reduce STAT1 phosphorylation
CMV (Towne strain)
  inhibitory effect on CMV replication (viral growth curves, plaque assay): strong inhibitory effects
[1]
  IC50 for inhibition of IL29 binding, as excess of peptide over the natural ligand: 50 time excess of peptide over the natural ligand
  inhibition of the binding of IL29 to IL-28R: highly potent

## KLKNWSCSSPVFPGNWDLRL [Peptide 17]
STAT1 phosphorylation
  STAT1 phosphorylation: reduce STAT1 phosphorylation
[2]
  inhibition of the binding of IL28A to IL-28R: potent

## LLKDCKCRSRLFPRTWDLRQ [Peptide 15]
[2]
  inhibition of the binding of IL28A to IL-28R: potent

## LLKDCRCHSRLFPRTWDLRQ [Peptide 16]
[2]
  inhibition of the binding of IL28A to IL-28R: potent

## MMCLKKQDLYNKFKG (MMCLKKQDLYNKFRG) [Peptide 9]
STAT2 phosphorylation
  blocking of STAT-2 phosphorylation: None of peptides REV, FKG, and APP blocked

## SEYLDYLFEVEPAPP [Peptide 10]
STAT2 phosphorylation
  blocking of STAT-2 phosphorylation: None of peptides REV, FKG, and APP blocked

## VAYQSSPTRRRWREV [Peptide 8]
STAT2 phosphorylation
  blocking of STAT-2 phosphorylation: None of peptides REV, FKG, and APP blocked

B1: IL28B: polypeptide of about 196 amino acids which binds a heterodimeric IL-28R complex (protein, listed as Homo sapiens)
chain: MTGDCMPVLVLMAAVLTVTGAVPVARLRGALPDARGCHIAQFKSLSPQELQAFKRAKDALEESLLLKDCKCRSRLFPRTWDLRQLQVRERPVALEAELALTLKVLEATADTDPALGDVLDQPLHTLHHILSQLRACIQPQPTAGPRTRGRLHHWLHRLQEAPKKESPGCLEASVTFNLFRLLTRDLNCVASGDLCV
IL28R1
  binding affinity towards IL28R1: significant lower binding affinity

B2: IL29: polypeptide of about 200 amino acids which binds a heterodimeric IL-28 receptor complex (protein, listed as Homo sapiens)
chain: MAAAWTVVLVTLVLGLAVAGPVPTSKPTTTGKGCHIGRFKSLSPQELASFKKARDALEESLKLKNWSCSSPVFPGNWDLRLLQVRERPVALEAELALTLKVLEAAAGPALEDVLDQPLHTLHHILSQLQACIQPQPTAGPRPRGRLHHWLHRLQEAPKKESAGCLEASVTFNLFRLLTRDLKYVADGNLCLRTSTHPEST
IL28R1
  binding affinity towards IL28R1: highest binding affinity of all Interferon lambdas
